Measurements from the supplement of paper PMC10307832.

Key:
Test in all cases: relative viability (nuclei count vs DMSO), 5 days (fraction); higher = more cells survive
NCI-H441 = system: NCI-H441
Outline: (§1)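 Five library-drug doses in √10 steps were combined with a fixed anchor-drug dose, or a single drug was given alone, by pin tool to lung cancer cell lines in 1536-well plates the day after seeding. Nuclei were stained and counted after 5 days. Relative viability is the nuclei count in treated wells over that in vehicle wells, taken as the median of duplicate plates.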

PC-3 [JPC-3] = system: PC-3 [JPC-3]
Outline: as §1

LK-2 = system: LK-2
Outline: as §1

EKVX = system: EKVX
Outline: as §1

NCI-H23 = system: NCI-H23
Outline: as §1

NCI-H596 = system: NCI-H596
Outline: as §1

NCI-H1975 = system: NCI-H1975
Outline: as §1

ChaGo-K-1 = system: ChaGo-K-1
Outline: as §1

COR-L 105 = system: COR-L 105
Outline: as §1

HCC-366 = system: HCC-366
Outline: as §1

LOU-NH91 = system: LOU-NH91
Outline: as §1

NCI-H2170 = system: NCI-H2170
Outline: as §1

A-427 = system: A-427
Outline: as §1

EMC-BAC-2 = system: EMC-BAC-2
Outline: as §1

NCI-H1734 = system: NCI-H1734
Outline: as §1

NCI-H520 = system: NCI-H520
Outline: as §1

NCI-H1755 = system: NCI-H1755
Outline: as §1

NCI-H1666 = system: NCI-H1666
Outline: as §1

SK-MES-1 = system: SK-MES-1
Outline: as §1

NCI-H1563 = system: NCI-H1563
Outline: as §1

H3255 = system: H3255
Outline: as §1

O=c1cc(-c2cccc3c2Sc2ccccc2S3)oc(N2CCOCC2)c1 + C[C@@H](Oc1cc(-c2cnn(C3CCNCC3)c2)cnc1N)c1c(Cl)ccc(F)c1Cl [Crizotinib] (partner 1 µM)
relative viability (NCI-H441; first compound 0.08 µM): 0.697
relative viability (NCI-H441; first compound 0.253 µM): 1.28
relative viability (NCI-H441; first compound 0.8 µM): 0.779
relative viability (NCI-H441; first compound 2.53 µM): 0.807
relative viability (NCI-H441; first compound 8 µM): 1
relative viability (PC-3 [JPC-3]; first compound 0.08 µM): 0.983
relative viability (PC-3 [JPC-3]; first compound 0.253 µM): 1.01
relative viability (PC-3 [JPC-3]; first compound 0.8 µM): 1.03
relative viability (PC-3 [JPC-3]; first compound 2.53 µM): 0.971
relative viability (PC-3 [JPC-3]; first compound 8 µM): 1.02
relative viability (LK-2; first compound 0.08 µM): 0.196
relative viability (LK-2; first compound 0.253 µM): 0.224
relative viability (LK-2; first compound 0.8 µM): 0.194
relative viability (LK-2; first compound 2.53 µM): 0.231
relative viability (LK-2; first compound 8 µM): 0.208
relative viability (EKVX; first compound 0.08 µM): 0.896
relative viability (EKVX; first compound 0.253 µM): 1.1
relative viability (EKVX; first compound 0.8 µM): 0.971
relative viability (EKVX; first compound 2.53 µM): 1.04
relative viability (EKVX; first compound 8 µM): 1.04
relative viability (NCI-H23; first compound 0.08 µM): 0.442
relative viability (NCI-H23; first compound 0.253 µM): 0.564
relative viability (NCI-H23; first compound 0.8 µM): 0.626
relative viability (NCI-H23; first compound 2.53 µM): 0.572
relative viability (NCI-H23; first compound 8 µM): 0.522
relative viability (NCI-H596; first compound 0.08 µM): 0.96
relative viability (NCI-H596; first compound 0.253 µM): 1.08
relative viability (NCI-H596; first compound 0.8 µM): 0.982
relative viability (NCI-H596; first compound 2.53 µM): 0.891
relative viability (NCI-H596; first compound 8 µM): 0.806
relative viability (NCI-H1975; first compound 0.08 µM): 1.01
relative viability (NCI-H1975; first compound 0.253 µM): 1.02
relative viability (NCI-H1975; first compound 0.8 µM): 0.922
relative viability (NCI-H1975; first compound 2.53 µM): 0.837
relative viability (NCI-H1975; first compound 8 µM): 0.98
relative viability (ChaGo-K-1; first compound 0.08 µM): 1.09
relative viability (ChaGo-K-1; first compound 0.253 µM): 1.35
relative viability (ChaGo-K-1; first compound 0.8 µM): 1.25
relative viability (ChaGo-K-1; first compound 8 µM): 1.22
relative viability (COR-L 105; first compound 0.08 µM): 0.833
relative viability (COR-L 105; first compound 0.253 µM): 0.706
relative viability (COR-L 105; first compound 0.8 µM): 0.752
relative viability (COR-L 105; first compound 2.53 µM): 0.798
relative viability (COR-L 105; first compound 8 µM): 1.07
relative viability (HCC-366; first compound 0.08 µM): 0.53
relative viability (HCC-366; first compound 0.253 µM): 0.731
relative viability (HCC-366; first compound 0.8 µM): 0.725
relative viability (HCC-366; first compound 2.53 µM): 0.498
relative viability (HCC-366; first compound 8 µM): 1.1
relative viability (LOU-NH91; first compound 0.08 µM): 0.727
relative viability (LOU-NH91; first compound 0.253 µM): 0.718
relative viability (LOU-NH91; first compound 0.8 µM): 0.707
relative viability (LOU-NH91; first compound 2.53 µM): 0.702
relative viability (LOU-NH91; first compound 8 µM): 0.776
relative viability (NCI-H2170; first compound 0.08 µM): 1.17
relative viability (NCI-H2170; first compound 0.253 µM): 1.19
relative viability (NCI-H2170; first compound 0.8 µM): 1.31
relative viability (NCI-H2170; first compound 2.53 µM): 1.12
relative viability (NCI-H2170; first compound 8 µM): 1.26
relative viability (A-427; first compound 0.08 µM): 0.988
relative viability (A-427; first compound 0.253 µM): 0.661
relative viability (A-427; first compound 0.8 µM): 1.02
relative viability (A-427; first compound 2.53 µM): 0.86
relative viability (A-427; first compound 8 µM): 0.791
relative viability (EMC-BAC-2; first compound 0.08 µM): 0.856
relative viability (EMC-BAC-2; first compound 0.253 µM): 0.753
relative viability (EMC-BAC-2; first compound 0.8 µM): 0.841
relative viability (EMC-BAC-2; first compound 2.53 µM): 0.784
relative viability (EMC-BAC-2; first compound 8 µM): 0.817
relative viability (NCI-H1734; first compound 0.08 µM): 0.686
relative viability (NCI-H1734; first compound 0.253 µM): 0.802
relative viability (NCI-H1734; first compound 0.8 µM): 0.9
relative viability (NCI-H1734; first compound 2.53 µM): 0.872
relative viability (NCI-H1734; first compound 8 µM): 0.672
relative viability (NCI-H520; first compound 0.08 µM): 0.447
relative viability (NCI-H520; first compound 0.253 µM): 0.695
relative viability (NCI-H520; first compound 0.8 µM): 0.976
relative viability (NCI-H520; first compound 2.53 µM): 0.821
relative viability (NCI-H520; first compound 8 µM): 0.821
relative viability (NCI-H1755; first compound 0.08 µM): 0.961
relative viability (NCI-H1755; first compound 0.253 µM): 0.974
relative viability (NCI-H1755; first compound 0.8 µM): 0.937
relative viability (NCI-H1755; first compound 2.53 µM): 0.878
relative viability (NCI-H1755; first compound 8 µM): 0.85
relative viability (NCI-H1666; first compound 0.08 µM): 0.911
relative viability (NCI-H1666; first compound 0.253 µM): 1.04
relative viability (NCI-H1666; first compound 0.8 µM): 0.922
relative viability (NCI-H1666; first compound 2.53 µM): 0.916
relative viability (NCI-H1666; first compound 8 µM): 0.857
relative viability (SK-MES-1; first compound 0.08 µM): 1.03
relative viability (SK-MES-1; first compound 0.253 µM): 0.949
relative viability (SK-MES-1; first compound 0.8 µM): 0.937
relative viability (SK-MES-1; first compound 2.53 µM): 0.925
relative viability (SK-MES-1; first compound 8 µM): 1.02
relative viability (NCI-H1563; first compound 0.08 µM): 0.93
relative viability (NCI-H1563; first compound 0.253 µM): 0.758
relative viability (NCI-H1563; first compound 0.8 µM): 0.792
relative viability (NCI-H1563; first compound 2.53 µM): 0.804
relative viability (NCI-H1563; first compound 8 µM): 0.887
relative viability (H3255; first compound 0.08 µM): 0.89
relative viability (H3255; first compound 0.253 µM): 0.992
relative viability (H3255; first compound 0.8 µM): 1.02
relative viability (H3255; first compound 2.53 µM): 0.747
relative viability (H3255; first compound 8 µM): 1.26
